Data on four compounds can be found in patent US9738595B2, “Carboxamide compounds” (SYNGENTA PARTICIPATIONS AG, priority 2013, dated 2017).

The compound `CC(C)(NC(=O)c1c(F)cccc1F)C(=O)c1ccc([C@H]2C[C@@H]2C(F)(F)F)cc1` (racemic) [Compound 19.003, N-[1,1-dimethyl-2-oxo-2-[4-[trans-2-(trifluoromethyl)-1-cyclopropyl]phenyl]ethyl]-2,6-difluoro-benzamide] displayed a melting point of 65 to 82 °C.
The result for `CC(C)(NC(=O)c1c(F)cccc1F)C(=O)c1ccc([C@H]2C[C@@H]2C(=O)O)cc1` (racemic) [Compound 19.061, trans-2-[4-[2-[(2,6-Difluorobenzoyl)amino]-2-methyl-propanoyl]phenyl]cyclopropane carboxylic acid] reads 115 to 116 °C; that for `CC(C)(C)OC(=O)N[C@H]1C[C@@H]1c1ccc(C(=O)C(C)(C)NC(=O)c2c(F)cccc2F)cc1` (racemic) [Compound 19.062, trans-tert-Butyl N-[2-[4-[2-[(2,6-difluorobenzoyl)amino]-2-methyl-propanoyl]phenyl]cyclopropyl]carbamate], 197 to 198 °C; that for `CC(C)(NC(=O)c1c(F)cccc1F)C(=O)c1ccc(C2CC2)cc1` [Compound 19.001, N-[2-(4-cyclopropylphenyl)-1,1-dimethyl-2-oxo-ethyl]-2,6-difluoro-benzamide], 121 to 123 °C.
